From ChEMBL document CHEMBL1687904, “Pestaloquinols A and B, isoprenylated epoxyquinols from Pestalotiopsis sp” (J Nat Prod, 2011)
pIC50: −log10 of the molar value.

System: HeLa
Test: Cytotoxicity against human HeLa cells after 48 hrs by MTT assay
Format: functional, cell-based

Structure (SMILES)	pIC50
CCCCC[C@@H]1OC=C2[C@@H]3OC(C)(C)[C@@H](O)C[C@@]34O[C@H]4C(=O)[C@]23[C@H]1[C@H]1C2=C([C@H]4OC(C)(C)[C@@H](O)C[C@@]45O[C@H]5C2=O)[C@@H]3O[C@@H]1CCCCC [PESTALOQUINOL A]	5.79
CCCCC[C@@H]1O[C@@H]2C3=C(C(=O)[C@@H]4O[C@@]45C[C@H](O)C(C)(C)O[C@H]35)[C@H]1[C@H]1[C@H](CCCCC)OC=C3[C@@H]4OC(C)(C)[C@@H](O)C[C@@]45O[C@H]5C(=O)[C@@]312 [PESTALOQUINOL B]	6.06
